Assay [1] concerns MDA-MB-468, BT20 and HCC38. Nature of the assay: Number of persister cells after EZH2i pre-treatment and 5-FU. It is filed as cell-based, human. To be noted: 10 days pre-treatment, then 5-FU for 21 days. The procedure: Cell lines, culture conditions and drug treatments. […] All cell lines were cultured in a humidified 5% CO2 atmosphere at 37° C., and were tested as mycoplasma negative. […] Cells were treated with 5 μM of 5-FU (Sigma, Ref: […]) alone or in combination with KDM6A/Bi or EZH2i for indicated days. […] Cell proliferation, doubling time and IC50. MDA-MB-468, HCC38 and BT20 cells were stained with Trypan Blue (Invitrogen, Ref: T10282) exclusion test, and counted using a Countess automated cell counter (Invitrogen, Ref: C10228) at indicated time of treatment (FIG. 4a and Extended FIG. 8a/d/f).

A further assay deals with T1, H3K27me3, EZH2 (Homo sapiens, UniProt Q15910).
T1 construct: endogenous in cells; host or cells: MDA-MB-468, HCC38 or BT20
The assay can be described thus: Western blotting of EZH2i-treated cells. In kind it is cell-based. To be noted: prior to chemotherapy treatment. The protocol: Western blotting. In Extended FIG. 8b/e/g, DMSO- and EZH2i-treated cells were lysed at 95° C. for 10 minutes in Laemmli buffer (50 mM Tris-HCl [pH 6.8], 2% SDS, 5% glycerol, 2 mM DTT, 2.5 mM EDTA, 2.5 mM EGTA, 4 mM Sodium Orthovanadate, 20 mM Sodium Fluoride, protease inhibitors, phosphatase inhibitors) and proteins concentrations were measured using a Pierce BCA protein Assay Kit (Thermo Fisher Scientific, Ref: 23225/23227). 10 μg of proteins were then separated on a 4-15% Mini-PROTEAN TGX Stain-Free Gel (Bio-Rad, Ref: 4568085) at 160V. After transfer, the membrane was blocked for 1 h at room temperature in PBS pH 7.4 containing 0.1% Tween-20 and 1% milk (Regilait). Incubation anti-H3K27me3 (Dilution: 1:2000, Cell Signaling, Ref: 9733) or EZH2 (Dilution: 1:2000, Cell Signaling, Ref: 5246) or Tubulin (Dilution: 1:1000, Thermo Fisher Scientific, Ref: 31460) primary antibodies diluted in PBS pH 7.4, 0.1% Tween-20 were performed at 4° C. overnight.
On the technique in general: Immunoblotting shows a protein as a band on a membrane.

SMILES strings stand for the structures.

T1 sequence (Q15910 whole entry): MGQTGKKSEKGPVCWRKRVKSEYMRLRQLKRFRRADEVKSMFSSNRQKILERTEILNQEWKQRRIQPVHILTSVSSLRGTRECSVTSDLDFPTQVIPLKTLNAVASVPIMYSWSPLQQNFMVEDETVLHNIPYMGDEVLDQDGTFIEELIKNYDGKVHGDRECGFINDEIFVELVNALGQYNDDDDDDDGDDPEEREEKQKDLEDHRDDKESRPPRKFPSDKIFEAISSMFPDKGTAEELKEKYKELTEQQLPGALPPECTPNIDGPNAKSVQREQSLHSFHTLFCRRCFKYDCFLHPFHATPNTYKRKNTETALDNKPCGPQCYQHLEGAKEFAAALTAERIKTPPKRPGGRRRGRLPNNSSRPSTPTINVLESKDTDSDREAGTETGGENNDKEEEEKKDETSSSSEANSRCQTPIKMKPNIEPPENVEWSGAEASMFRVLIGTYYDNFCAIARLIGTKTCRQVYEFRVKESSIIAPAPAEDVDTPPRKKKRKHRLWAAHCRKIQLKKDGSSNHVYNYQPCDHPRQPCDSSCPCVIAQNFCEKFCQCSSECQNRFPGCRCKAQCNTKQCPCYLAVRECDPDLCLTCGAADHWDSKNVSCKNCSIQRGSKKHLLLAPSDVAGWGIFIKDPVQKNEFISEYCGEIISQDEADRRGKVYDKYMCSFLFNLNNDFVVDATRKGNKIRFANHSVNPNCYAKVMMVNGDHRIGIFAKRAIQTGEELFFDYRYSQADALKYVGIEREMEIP
T1 sequence (O75530 whole entry partner): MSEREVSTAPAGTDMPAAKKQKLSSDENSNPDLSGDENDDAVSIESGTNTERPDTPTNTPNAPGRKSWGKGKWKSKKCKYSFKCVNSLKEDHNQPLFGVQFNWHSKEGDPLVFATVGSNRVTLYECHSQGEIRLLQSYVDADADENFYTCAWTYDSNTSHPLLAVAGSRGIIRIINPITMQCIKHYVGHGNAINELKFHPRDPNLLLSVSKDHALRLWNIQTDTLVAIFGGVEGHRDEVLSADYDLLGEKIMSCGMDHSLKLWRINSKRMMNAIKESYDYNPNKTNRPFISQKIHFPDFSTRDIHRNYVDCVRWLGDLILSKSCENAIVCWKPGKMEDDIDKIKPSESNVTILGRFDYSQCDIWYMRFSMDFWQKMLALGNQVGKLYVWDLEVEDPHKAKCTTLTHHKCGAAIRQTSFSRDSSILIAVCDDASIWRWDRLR
T1 sequence (Q15022 whole entry partner): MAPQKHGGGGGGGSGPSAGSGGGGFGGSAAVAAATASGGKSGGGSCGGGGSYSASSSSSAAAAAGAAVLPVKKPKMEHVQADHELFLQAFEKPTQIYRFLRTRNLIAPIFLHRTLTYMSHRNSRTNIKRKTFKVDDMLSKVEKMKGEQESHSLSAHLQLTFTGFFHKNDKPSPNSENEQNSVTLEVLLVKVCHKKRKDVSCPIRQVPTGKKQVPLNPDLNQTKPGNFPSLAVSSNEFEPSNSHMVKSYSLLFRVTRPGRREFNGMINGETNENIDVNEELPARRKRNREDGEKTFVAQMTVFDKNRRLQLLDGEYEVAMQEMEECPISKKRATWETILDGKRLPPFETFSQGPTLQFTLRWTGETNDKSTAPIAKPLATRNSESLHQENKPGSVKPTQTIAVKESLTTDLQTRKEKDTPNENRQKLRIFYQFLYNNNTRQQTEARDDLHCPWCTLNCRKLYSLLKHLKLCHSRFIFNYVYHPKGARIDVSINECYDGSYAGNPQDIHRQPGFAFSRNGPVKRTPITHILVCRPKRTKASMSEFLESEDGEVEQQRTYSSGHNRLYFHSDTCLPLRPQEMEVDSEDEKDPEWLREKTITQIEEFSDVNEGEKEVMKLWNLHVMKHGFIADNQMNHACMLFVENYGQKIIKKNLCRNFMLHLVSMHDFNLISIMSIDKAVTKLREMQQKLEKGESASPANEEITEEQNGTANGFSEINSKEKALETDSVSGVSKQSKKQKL

In the case of `CCCc1cc(C)[nH]c(=O)c1CNC(=O)c1cc(-c2ccc(N3CCN(C(C)C)CC3)nc2)cc2c1cnn2C(C)C` [EZH2i-1], the “number of persister cells” value in assay [1] is “increased the number of persister cells”. Besides, on H3K27me3, EZH2, the EZH2 protein levels result was “without perturbing EZH2 protein levels” and the H3K27me3 level entry is recorded as “erasing H3K27me3”.

Source of the values: US20260266837A1, “Methods for Cancer Recurrence Detection and Treatment Thereof” (Institut Curie, priority 2022, published 2026).
